How the values were obtained:
[1] = target: T1, L-galactonic acid dehydratase (Trichoderma reesei, UniProt Q0QWS4); test: conversion of L-galactonic acid by yeast extract of strain H3350, product quantified as 2-keto-3-deoxy sugar acid in a chemical assay; format: biochemical, Hypocrea jecorina (Trichoderma reesei); settings: after 21 hours; protein concentration of yeast extract 0.15 g/l; initial L-galactonic acid concentration 10 mM
T1 construct: made in house; host or cells: Saccharomyces cerevisiae strain H3350 (DSM 17214), crude yeast extract
T1 sequence (Q0QWS4 1-450): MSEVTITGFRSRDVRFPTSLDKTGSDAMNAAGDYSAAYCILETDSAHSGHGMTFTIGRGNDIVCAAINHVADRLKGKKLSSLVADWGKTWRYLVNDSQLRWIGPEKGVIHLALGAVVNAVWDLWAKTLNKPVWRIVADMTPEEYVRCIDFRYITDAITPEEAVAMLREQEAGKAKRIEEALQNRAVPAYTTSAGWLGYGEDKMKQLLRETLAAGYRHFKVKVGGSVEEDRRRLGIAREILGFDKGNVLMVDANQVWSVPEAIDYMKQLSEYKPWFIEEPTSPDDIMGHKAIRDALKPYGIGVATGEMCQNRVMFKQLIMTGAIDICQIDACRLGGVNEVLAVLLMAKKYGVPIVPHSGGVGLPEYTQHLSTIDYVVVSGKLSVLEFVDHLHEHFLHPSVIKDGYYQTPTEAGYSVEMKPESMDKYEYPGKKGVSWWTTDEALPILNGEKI
Experimental: L-galactonic acid was mixed with the yeast extract of strain H3350 as described in example 1. The reaction product was identified as a 2-keto-3-deoxy sugar acid in a chemical assay and quantified as described by Buchanan et al. (1999) Biochem. J., 343:563-570. The protein concentration of the yeast extract in the reaction medium was 0.15 g/l and the initial L-galactonic acid concentration 10 mM. After 21 hours 1.04 mM of L-threo-3-deoxy-hexulosonic acid was formed.

[2] = target: T1, L-galactonic acid dehydratase; test: specificity test of L-galactonic acid dehydratase in yeast extract of strain H3350, formation of reducing sugars; format: biochemical, Hypocrea jecorina (Trichoderma reesei); settings: yeast extract of S. cerevisiae strain H3350 expressing lgd1; formation of reducing sugars followed
Excerpt: The resulting vector was then transformed to a strain of Saccharomyces cerevisiae. The resulting S. cerevisiae strain was then disintegrated by vortexing with glass beads and the yeast extract analyzed for L-galactonic acid dehydratase activity. To assay the L-galactonic acid dehydratase activity L-galactonic acid was mixed with the yeast extract and formation of reducing sugars followed using standard protocols. (Bernfeld, P. (1955) “Amylases, α and β,” In: Methods In Enzymology, vol. 1, Colovick S. P., Kaplan, N. O. (eds.) Academic Press NY, pp 149-158).
To test the specificity of the enzyme the yeast extract as described before was mixed with the sugar acids D-gluconic acid, D-arabonic acid, D-xylonic acid, L-gulonic acid and L-galactonic acid. We followed the formation of reducing sugars as described in the example 1.

Row | SMILES | L-threo-3-deoxy-hexulosonic acid formed [1] [mM] | enzyme activity with the sugar acid as substrate [2]
1 | O=C(O)[C@@H](O)[C@H](O)[C@H](O)[C@@H](O)CO [L-galactonic acid] | 1.04 | Activity was observed
2 | O=C(O)[C@@H](O)[C@H](O)[C@H](O)CO [D-arabonic acid] |  | Activity was observed
3 | O=C(O)[C@H](O)[C@@H](O)[C@H](O)[C@H](O)CO [D-gluconic acid] |  | does not exhibit activity
4 | O=C(O)[C@H](O)[C@@H](O)[C@H](O)CO [D-xylonic acid] |  | does not exhibit activity
